“Also recorded” adds a separate entry of the source.
Experiments:
Assay type in all cases: cell-based, human
[1] = tested on: pancreatic cancer cells (AsPC1 and BxPC3) and breast cancer cells (MB361 and MB468); assay: SACF assay with CEP-1347
Procedure: (§1) FIGS. 15A to 15D include charts showing that CEP-1347 inhibits IL-17RB Y447 phosphorylation, ERK1/2 phosphorylation, and aggressiveness of both pancreatic and breast cancer cells. Pancreatic cancer cells (AsPC1 and BxPC3) and breast cancer cells (MB361 and MB468) were transduced with lentiviral shLacZ (control) and lentiviral shMLK4, separately. In comparison to MLK4-knockdown cells, shLacZ-transduced cancer cells were pretreated with CEP-1347 (200 nM), a non-selective inhibitor of MLKs, before adding 50 ng/ml rIL-17B in serum-free conditions for 30 mins. The cell lysates were immunoblotted directly with the indicated antibodies (FIG. 15A). The same cells were measured by RT-qPCR for the cytokine gene expression (n=3) (FIG. 15B), for SACF assay (n=4) (FIG. 15C), and for invasion assay (n=4) (FIG. 15D). All the data are mean±s.d. *P<0.05, **P<0.01 by two-tailed Student's t-test.
Soft agar colony formation assay was performed as described (7). Briefly, 250010000 cells were seeded in a layer of 0.35% agar/complete growth medium over a layer of 0.5% agar/complete growth medium in a 12-well plate. Cell medium containing the indicated concentration of rIL-17B (R&D), DMSO (Sigma-Aldrich), or CEP-1347 (Tocris Bioscience) was replenished every three days. […] Crystal violet-stained colonies greater than 50 μm in size were counted and analyzed objectively by light microscopy.

[2] = tested on: MLKs; assay: Immunoblotting of IL-17B-induced phosphorylation after CEP-1347 pretreatment; settings: CEP-1347 200 nM pretreatment, then 50 ng/ml rIL-17B 30 mins; AsPC1, BxPC3, MB361, MB468
Procedure: as §1
Immunoblotting analysis was performed after proteins were separated by gradient SDS-PAGE (HR gradient gel solution, TFUGG420, TOOLS) and transferred to PVDF membrane, with overnight incubation with diluted primary antibody followed by diluted horseradish peroxidase-conjugated anti-rabbit, anti-mouse or anti-goat antibody (Jackson ImmunoResearch) as described (48-50). […] Optical density was determined using the National Institutes of Health ImageJ program.

[3] = tested on: pancreatic cancer cells (AsPC1 and BxPC3) and breast cancer cells (MB361 and MB468); assay: RT-qPCR of cytokine gene expression after CEP-1347; settings: CEP-1347 200 nM
Procedure: as §1, with “All the data are mean±s.d. *P<0.05, **P<0.01 by two-tailed Student's t-test.” left out
Total RNA from cultured cells and tumor tissue was isolated using Trizol reagent (Thermo Fisher Scientific) and reversely transcribed with Transcriptor First Strand cDNA Synthesis Kit (Roche Life Science) for gene expression analysis according to manufacturer's instructions. Quantitative real-time RT-PCR assay was run on the StepOnePlus system (Applied Biosystems) using KAPA SYBR FAST qPCR Kit (Kapa Biosystems) according to manufacturer's instructions, and data was analyzed by StepOne Software v2.2.2. β-actin mRNA was used as an internal control. […]

[4] = tested on: pancreatic cancer cells (AsPC1 and BxPC3) and breast cancer cells (MB361 and MB468); assay: Invasion assay with CEP-1347
Procedure: as §1
For invasion assay, about 10^4 cells were seeded in the top chamber with Matrigel-coated membrane (24-well BD Falcon HTS Fluoro Block insert; pore size, 8 μm; BD Biosciences) in serum-free media containing rIL-17B, DMSO, or CEP-1347. Medium supplemented with 10% serum was used as a chemoattractant in the lower chamber. After 24- or 48 hrs incubation, the invading cells were fixed with methanol, stained with 4,6-diamidino-2-phenylindole (DAPI) and counted by fluorescence microscopy.

Which “aggressiveness of both pancreatic and breast cancer cells” value ([1]; CEP-1347 200 nM, SACF and invasion assays) does the source give for CCSCc1ccc2c(c1)c1c3c(c4c5cc(CSCC)ccc5n5c4c1n2[C@H]1C[C@](O)(C(=O)OC)[C@]5(C)O1)CNC3=O [CEP-1347] here?
Its value is “inhibits”.

And the colony formation ([1]; CEP-1347, AsPC1, BxPC3, MB361, MB468)?
The colony formation was “abrogated”.

What about the ERK1/2 phosphorylation [2] of the same compound?
The ERK1/2 phosphorylation was “abrogated; also recorded: inhibits”.

And the “IL-17RB (Y447) phosphorylation” value [2]?
Its value is “abrogated; also recorded: inhibits”.

What about the cytokine gene expressions [3] of the same compound?
The cytokine gene expressions was “abrogated”.

What about the “invasion properties of the cancer cells” value [4] of the same compound?
The value was “abrogated”.
